{"source": "patent US20230150906A1", "about": "“DESOXYSCALINE DERIVATIVES WITH MODIFIED MESCALINE-LIKE ACTION” (Mind Medicine, Inc., priority 2021, published 2023)", "origin": "cited, not measured here", "key": {"[1]": {"system": "humans"}, "[2]": {"molecular_target": "5-HT2A receptor (Homo sapiens, UniProt P28223)", "sequence (P28223 whole entry)": "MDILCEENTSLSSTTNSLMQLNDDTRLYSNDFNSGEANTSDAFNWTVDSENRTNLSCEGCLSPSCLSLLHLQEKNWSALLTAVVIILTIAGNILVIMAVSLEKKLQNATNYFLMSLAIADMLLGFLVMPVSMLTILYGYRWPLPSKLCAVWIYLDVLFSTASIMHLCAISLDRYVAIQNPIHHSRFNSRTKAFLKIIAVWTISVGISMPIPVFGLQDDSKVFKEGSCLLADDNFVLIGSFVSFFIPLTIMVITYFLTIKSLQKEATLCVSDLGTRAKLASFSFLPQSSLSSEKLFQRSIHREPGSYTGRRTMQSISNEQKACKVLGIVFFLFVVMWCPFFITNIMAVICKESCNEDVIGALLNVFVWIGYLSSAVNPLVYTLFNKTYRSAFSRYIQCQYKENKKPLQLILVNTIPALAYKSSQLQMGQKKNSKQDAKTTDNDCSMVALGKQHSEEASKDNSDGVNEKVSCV"}, "[3]": {"molecular_target": "D2 receptors (Homo sapiens, UniProt P14416)", "sequence (P14416 whole entry)": "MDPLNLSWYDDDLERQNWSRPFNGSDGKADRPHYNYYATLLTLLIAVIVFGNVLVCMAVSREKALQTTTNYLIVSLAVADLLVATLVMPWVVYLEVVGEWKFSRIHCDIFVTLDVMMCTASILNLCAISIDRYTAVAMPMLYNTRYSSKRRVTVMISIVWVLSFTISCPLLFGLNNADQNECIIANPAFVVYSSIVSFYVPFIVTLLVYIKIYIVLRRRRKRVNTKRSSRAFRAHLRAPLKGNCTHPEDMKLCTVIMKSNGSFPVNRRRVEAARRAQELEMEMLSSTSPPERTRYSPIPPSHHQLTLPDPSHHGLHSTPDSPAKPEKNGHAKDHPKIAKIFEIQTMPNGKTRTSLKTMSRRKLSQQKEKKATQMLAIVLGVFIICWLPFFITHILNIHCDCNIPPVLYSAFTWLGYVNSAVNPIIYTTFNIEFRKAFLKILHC"}, "[4]": {"molecular_target": "5-HT transporter (SERT) (Homo sapiens, UniProt P31645)", "sequence (P31645 whole entry, species assumed)": "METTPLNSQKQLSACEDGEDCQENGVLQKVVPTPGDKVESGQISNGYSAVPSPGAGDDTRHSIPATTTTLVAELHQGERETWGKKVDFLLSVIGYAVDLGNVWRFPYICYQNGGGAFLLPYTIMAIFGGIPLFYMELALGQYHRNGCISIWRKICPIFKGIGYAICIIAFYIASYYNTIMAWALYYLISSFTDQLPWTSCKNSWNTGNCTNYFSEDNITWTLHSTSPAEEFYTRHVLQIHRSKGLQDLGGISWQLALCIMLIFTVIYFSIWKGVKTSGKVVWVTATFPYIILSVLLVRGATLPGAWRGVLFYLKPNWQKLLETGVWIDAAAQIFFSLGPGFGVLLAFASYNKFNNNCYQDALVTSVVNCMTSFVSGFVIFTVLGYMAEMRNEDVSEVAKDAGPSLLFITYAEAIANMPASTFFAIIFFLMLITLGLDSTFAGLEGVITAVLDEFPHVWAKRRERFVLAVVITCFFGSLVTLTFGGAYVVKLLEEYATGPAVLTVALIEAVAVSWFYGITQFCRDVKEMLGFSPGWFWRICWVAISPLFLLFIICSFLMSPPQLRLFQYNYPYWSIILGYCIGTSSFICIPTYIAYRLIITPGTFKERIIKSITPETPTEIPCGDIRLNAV"}, "[5]": {"molecular_target": "serotonin 5-HT2A receptor (Homo sapiens, UniProt P28223)", "sequence (P28223 whole entry)": "as the sequence (P28223 whole entry) above"}, "[6]": {"conditions": "humans"}}, "note": "“Also recorded” adds a separate entry of the source."}
{"smiles": "COc1cc(CCN)cc(OC)c1C", "note": "[DESOXY, 3,5-dimethoxy-4-methylphenethylamine]", "values": [{"measurement": "psychoactive effects in human", "setting": "[1]; human", "value": "has shown psychoactive effects in human"}]}
{"smiles": "CN(C)CCc1c[nH]c2ccccc12", "note": "[DMT, N,N-dimethyltryptamine]", "values": [{"measurement": "activity at the 5-HT2A receptor (agonism / stimulation)", "setting": "[2]", "value": "agonists"}]}
{"smiles": "CCN(CC)C(=O)[C@@H]1C=C2c3cccc4[nH]cc(c34)C[C@H]2N(C)C1", "note": "[LSD, lysergic acid diethylamide]", "values": [{"measurement": "activity at D2 receptors", "setting": "[3]", "value": "has activity"}, {"measurement": "activity at the 5-HT2A receptor (agonism / stimulation)", "setting": "[2]", "value": "agonists; also recorded: potently stimulates"}]}
{"smiles": "CN(C)CCc1c[nH]c2cccc(O)c12", "note": "[Psilocin, psilocin]", "values": [{"measurement": "interaction with the SERT", "setting": "[4]", "value": "inhibits"}, {"measurement": "activity at the 5-HT2A receptor (agonism / stimulation)", "setting": "[2]", "value": "stimulates"}]}
{"smiles": "COc1cc(CCN)cc(OC)c1OC", "note": "[mescaline]", "values": [{"measurement": "5-HT2A receptor ligand strength", "setting": "[5]", "value": "very weak"}, {"measurement": "plasma half-life", "setting": "[6]", "value": "approximately 6 hours"}, {"measurement": "interaction with the SERT", "setting": "[4]", "value": "do not interact"}, {"measurement": "affinity for D2 receptors", "setting": "[3]", "value": "no affinity"}, {"measurement": "activity at the 5-HT2A receptor (agonism / stimulation)", "setting": "[2]", "value": "agonists"}, {"measurement": "dose needed to induce a full psychedelic experience", "setting": "[1]; humans", "value": "200 to 800", "unit": "mg"}, {"measurement": "time of peak of subjective effects", "setting": "[1]; humans, psychoactive doses", "value": 4, "unit": "h"}, {"measurement": "time until subjective effects appear", "setting": "[1]; humans, psychoactive doses", "value": "≤ 30", "unit": "min"}, {"measurement": "duration of subjective effects", "setting": "[1]; humans, psychoactive doses, dose-dependent", "value": "10 to 16", "unit": "h"}]}
